Measured values: EP4596536A1 (Shanghai de Novo Pharmatech Co., Ltd., priority 2022, dated 2024)

Molecular target: T1, TLR8 (Homo sapiens, UniProt Q9NR97)
T1 construct: host or cells: HEK293 (HEK-BLUE-hTLR8)
T1 sequence (Q9NR97 27-1041): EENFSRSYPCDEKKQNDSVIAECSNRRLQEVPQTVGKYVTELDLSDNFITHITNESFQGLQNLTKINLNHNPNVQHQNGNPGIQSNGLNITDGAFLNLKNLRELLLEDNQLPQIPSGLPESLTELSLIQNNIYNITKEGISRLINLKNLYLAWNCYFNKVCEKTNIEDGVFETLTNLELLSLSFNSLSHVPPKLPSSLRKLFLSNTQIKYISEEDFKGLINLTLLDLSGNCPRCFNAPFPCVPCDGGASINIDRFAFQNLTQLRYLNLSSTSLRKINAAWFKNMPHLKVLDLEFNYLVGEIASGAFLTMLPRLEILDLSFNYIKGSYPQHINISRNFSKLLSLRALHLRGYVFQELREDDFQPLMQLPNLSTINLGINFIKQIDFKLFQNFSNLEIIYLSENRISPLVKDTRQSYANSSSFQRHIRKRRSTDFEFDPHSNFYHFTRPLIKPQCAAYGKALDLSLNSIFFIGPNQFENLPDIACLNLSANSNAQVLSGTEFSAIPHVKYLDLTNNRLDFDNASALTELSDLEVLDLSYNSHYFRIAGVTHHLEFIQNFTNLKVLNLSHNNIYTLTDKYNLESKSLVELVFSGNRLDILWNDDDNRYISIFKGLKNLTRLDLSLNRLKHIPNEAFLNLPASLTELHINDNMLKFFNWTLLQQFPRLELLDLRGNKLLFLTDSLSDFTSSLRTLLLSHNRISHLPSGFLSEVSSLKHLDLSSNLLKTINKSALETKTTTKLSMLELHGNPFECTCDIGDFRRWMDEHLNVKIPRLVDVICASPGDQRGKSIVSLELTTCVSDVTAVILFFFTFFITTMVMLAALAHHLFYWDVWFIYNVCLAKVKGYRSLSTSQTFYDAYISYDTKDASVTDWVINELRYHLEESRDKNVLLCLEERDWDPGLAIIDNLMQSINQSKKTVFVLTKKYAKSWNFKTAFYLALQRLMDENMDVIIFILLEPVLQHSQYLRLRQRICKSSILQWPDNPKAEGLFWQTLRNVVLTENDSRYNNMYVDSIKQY
Assay: HEK-BLUE-hTLR8 cell SEAP reporter assay (Quanti-Blue)
Assay type: cell-based
Details: HEK-BLUE-hTLR8 cells, 0.5 nM to 15 µM, 24 hours
Experimental: In this experiment, the biological activity of TLR7 and TLR8 in the compound of formula I was detected using cell tests. This method was conducted in human embryonic kidney cells (HEK293) expressing TLR family members such as TLR4, TLR7, TLR8 or TLR9. TLR agonists activate TLRs, triggering the activation of downstream NF-kB, which in turn activates the secreted embryonic alkaline phosphatase (SEAP) reporter gene. The activity of SEAP was detected using the Quanti-Blue (InvivoGen) reagent, thereby reflecting the activities of TLR7 and TLR8 agonists.
The detailed experimental method was as follows: HEK-BLUE-hTLR7 and HEK-BLUE-hTLR8 cell lines were purchased from Invivogen Company and cultured in DMEM medium containing 4.5 g/L glucose (Sigma-Aldrich) and 10% fetal bovine serum under the conditions of temperature 37°C, humidity 95% and 5% CO2.
The compound was tested at a concentration ranging from 0.5 nM to 15 µM over a total of 10 concentration gradients. TLR7 or TLR8 agonists with known activity were added as positive controls, and 1 µL of DMSO was added as a negative control.
The cells were treated as follows: the cells were removed from the culture dish and centrifuged to remove the medium, and resuspended in a T-150 bottle with 10 mL of preheated PBS, 12 mL of preheated medium was added, and the cells were gently pipetted up and down and counted under a microscope. A 200,000/mL single-cell suspension was immediately prepared with medium and added to a 96-well plate at 200 µL/well (40,000/well). The final concentration of DMSO was 0.5%.
The compound was added and incubated in an incubator at 37°C, 5% CO2 for 24 hours.
A supernatant at 20 µL/well was aspirated into 180 µL of preheated Quanti-Blue at 37°C, incubated at 37°C for 1.5 hours, and detected for the absorbance (OD value) with a spectrophotometer at 650 nm. The formula for calculating the agonistic effect is as follows:
Effect % = (average OD value of the drug-administered group - average OD value of the DMSO group) / (average OD value of the positive drug group - average OD value of the DMSO group) × 100
Graphpad software was used to fit the concentration-effect curve, and EC50 was calculated. The test results are shown in Table 15 (A denotes < 250 nM, B denotes 250 nM-1 µM, C denotes 1 µM-2 µM, D denotes > 2 µM, and - denotes not listed or not tested): Table 15

| SMILES | EC50 [nM] |
| --- | --- |
| CCCN(CCC)C(=O)C1=Cc2ccc(C3(C(=O)Nc4cncc(CN)c4)CC3)cc2N=C(N)C1 [Compound 16] | < 250 |
| CCCN(CCO)C(=O)C1=Cc2ccc(C3(C(=O)Nc4cnc5c(c4)CN(C(=O)[C@H](CCCNC(N)=O)NC(=O)[C@@H](N)C(C)C)CC5)CC3)cc2N=C(N)C1 [Example 33, 2-amino-8-(1-((6-((S)-2-((S)-2-amino-3-methylbutanoylamino)-5-ureidopentanoyl)-5,6,7,8-tetrahydro-1,6-naphthyridin-3-yl)carbamoyl)cyclopropyl)-N-(2-hydroxyethyl)-N-propyl-3H-benzo[b]azepine-4-formamide] | < 250 |
| CCCN(CCO)C(=O)C1=Cc2ccc(C3(C(=O)NCc4ccc(N)cc4)CC3)cc2N=C(N)C1 [Compound 17, 2-amino-8-(1-((4-aminobenzyl)carbamoyl)cyclopropyl)-N-(2-hydroxyethyl)-N-propyl-3H-benzo[b]azepine-4-formamide] | < 250 |
| CCCN(CCO)C(=O)C1=Cc2ccc(C3(C(=O)Nc4cccc(N)c4)CC3)cc2N=C(N)C1 [Compound 19, 2-amino-8-(1-((3-aminophenyl)carbamoyl)cyclopropyl)-N-(2-hydroxyethyl)-N-propyl-3H-benzo[b]azepine-4-formamide] | < 250 |
| CCCN(CCOP(=O)(N[C@@H](C)C(=O)OCc1ccccc1)Oc1ccccc1)C(=O)C1=Cc2ccc(C3(C(=O)Nc4cnc5c(c4)CNCC5)CC3)cc2N=C(N)C1 (single isomer, unassigned) [Compound 25-1] | < 250 |
| CCCN(CCO)C(=O)C1=Cc2ccc(C3(C(=O)Nc4cnc5c(c4)CN(C(=O)CNC(=O)CCOCCOCCNC(=O)CCCNC(=O)CN4C(=O)C=CC4=O)CC5)CC3)cc2N=C(N)C1 [II-24, 2-amino-8-(1-((6-(20-(2,5-dioxo-2,5-dihydro-1H-pyrrol-1-yl)-4,14,19-trioxo-7,10-dioxa-3,13,18-triazaeicosanacyl)-5,6,7,8-tetrahydro-1,6-naphthyridin-3-yl)carbamoyl)cyclopropyl)-N-(2-hydroxyethyl)-N-propyl-3H-benzo[b]azepine-4-formamide] | 250 to 1000 |
| CCCN(CCO)C(=O)C1=Cc2ccc(C3(C(=O)Nc4cncc(N)c4)CC3)cc2N=C(N)C1 [Compound 20, 2-amino-8-(1-((5-aminopyridin-3-yl)carbamoyl)cyclopropyl)-N-(2-hydroxyethyl)-N-propyl-3H-benzo[b]azepine-4-formamide] | 250 to 1000 |
| CCCN(CCO)C(=O)C1=Cc2ccc(C3(C(=O)Nc4cnc5c(c4)CN(C(=O)OCc4ccc(NC(=O)[C@H](CC(N)=O)NC(=O)[C@H](C)NC(=O)[C@H](C)NC(=O)CCCCCN6C(=O)C=CC6=O)cc4)CC5)CC3)cc2N=C(N)C1 [II-96] | 250 to 1000 |

The remaining lines, values ahead:

| EC50 [nM] | SMILES |
| --- | --- |
| 250 to 1000 | CCCN(CCO)C(=O)C1=Cc2ccc(C3(C(=O)Nc4cnc5c(c4)CN(C(=O)OCc4ccc(NC(=O)[C@H](CCCNC(N)=O)NC(=O)[C@@H](NC(=O)Cc6ccc(N7C(=O)C=CC7=O)cc6)C(C)C)cc4)CC5)CC3)cc2N=C(N)C1 [II-97] |
| < 250 | CCCN(CCO)C(=O)C1=Cc2ccc(C3(C(=O)Nc4cnc5c(c4)CN(C(=O)OCc4ccc(O[C@@H]6O[C@H](C(=O)O)[C@@H](O)[C@H](O)[C@H]6O)c(NC(=O)CNC(=O)CCCCCN6C(=O)C=CC6=O)c4)CC5)CC3)cc2N=C(N)C1 [II-36, (2S,3S,4S,5R,6S)-6-(4-(((3-(1-(2-amino-4-((2-hydroxyethyl)(propyl)carbamoyl)-3H-benzo[b]azepin-8-yl)cyclopropyl-1-formylamino)-5,6,7,8-tetrahydro-1,6-naphthyridine-6-carbonyl)oxy)methyl)-2-(2-(6-(2,5-dioxo-2,5-dihydro-1H-pyrrol-1-yl)hexanoylamino)acetylamino)phenoxy)-3,4,5-trihydroxytetrahydro-2H-pyran-2-carboxylic acid] |
| 250 to 1000 | CCCN(CCO)C(=O)C1=Cc2ccc(C3(C(=O)Nc4cnc5c(c4)CN(C(=O)OCc4ccc(NC(=O)[C@H](CCCNC(N)=O)NC(=O)[C@@H](NC(=O)C6COC(CN7C(=O)C=CC7=O)OC6)C(C)C)cc4)CC5)CC3)cc2N=C(N)C1 (stereo partly shown) [II-98] |
| 250 to 1000 | CCCN(CCO)C(=O)C1=Cc2ccc(C3(C(=O)Nc4cnc5c(c4)CN(C(=O)CCOCCOCCNC(=O)[C@H](CCCNC(N)=O)NC(=O)[C@@H](NC(=O)CCCCCN4C(=O)C=CC4=O)C(C)C)CC5)CC3)cc2N=C(N)C1 [II-17, 2-amino-8-(1-((6-((12S,15S)-22-(2,5-dioxo-2,5-dihydro-1H-pyrrol-1-yl)-15-isopropyl-11,14,17-trioxo-12-(3-ureidopropyl)-4,7-dioxa-10,13,16-triazabehenoyl)-5,6,7,8-tetrahydro-1,6-naphthyridin-3-yl)carbamoyl)cyclopropyl)-N-(2-hydroxyethyl)-N-propyl-3H-benzo[b]azepine-4-formamide] |
| 250 to 1000 | CCCN(CCO)C(=O)C1=Cc2ccc(C3(C(=O)Nc4cnc5c(c4)CN(C(=O)CCOCCOCCNC(=O)CCN4C(=O)C=CC4=O)CC5)CC3)cc2N=C(N)C1 [II-7, 2-amino-8-(1-((6-(3-(2-(2-(3-(2,5-dioxo-2,5-dihydro-1H-pyrrol-1-yl)propionylamino)ethoxy)ethoxy)propionyl)-5,6,7,8-tetrahydro-1,6-naphthyridin-3-yl)carbamoyl)cyclopropyl)-N-(2-hydroxyethyl)-N-propyl-3H-benzo[b]azepine-4-formamide] |
| 250 to 1000 | CCCN(CCO)C(=O)C1=Cc2ccc(C3(C(=O)Nc4cnc5c(c4)CN(C(=O)C4COC(CN6C(=O)C=CC6=O)OC4)CC5)CC3)cc2N=C(N)C1 (single isomer, unassigned) [II-77, 2-amino-8-(1-((6-(2-((2,5-dioxo-2,5-dihydro-1H-pyrrol-1-yl)methyl)-1,3-dioxan-5-carbonyl)-5,6,7,8-tetrahydro-1,6-naphthyridin-3-yl)carbamoyl)cyclopropyl)-N-(2-hydroxyethyl)-N-propyl-3H-benzo[b]azepine-4-formamide] |
| < 250 | CCCN(CCO)C(=O)C1=Cc2ccc(C3(C(=O)Nc4cnc5c(c4)CN(C(=O)CCOCCOCCNC(=O)CN4C(=O)C=CC4=O)CC5)CC3)cc2N=C(N)C1 [II-23, 2-amino-8-(1-((6-(3-(2-(2-(2-(2,5-dioxo-2,5-dihydro-1H-pyrrol-1-yl)acetylamino)ethoxy)ethoxy)propionyl)-5,6,7,8-tetrahydro-1,6-naphthyridin-3-yl)carbamoyl)cyclopropyl)-N-(2-hydroxyethyl)-N-propyl-3H-benzo[b]azepine-4-formamide] |
| 250 to 1000 | CCCN(CCO)C(=O)C1=Cc2ccc(C3(C(=O)Nc4cnc5c(c4)CN(C(=O)OCc4ccc(NC(=O)CCOCCOCCNC(=O)CCN6C(=O)C=CC6=O)cc4)CC5)CC3)cc2N=C(N)C1 [II-28, 4-(3-(2-(2-(3-(2,5-dioxo-2,5-dihydro-1H-pyrrol-1-yl)propionylamino)ethoxy)ethoxy)propionylamino)benzyl 3-(1-(2-amino-4-((2-hydroxyethyl)(propyl)carbamoyl)-3H-benzo[b]azepin-8-yl)cyclopropane-1-formylamino)-7,8-dihydro-1,6-naphthyridine-6(5H)-carboxylate] |
